Experimental data taken from patent US20210403485A1, “PYRAZOLOPYRIMIDINE DERIVATIVE AS SELECTIVE TRK INHIBITOR” (SHANDONG LUYE PHARMACEUTICAL CO., LTD., priority 2018, published 2021).
pIC50: −log10 of the molar value. Like-named read-outs stand apart in the source and are kept apart here.

Tests used:
[1] = Pharmacokinetic test of compounds in mice (plasma, LC/MS/MS); format: in vivo, male CD-1 mice; conditions: for Cmax: read-out: Peak concentration Cmax; for AUC(0-t): read-out: Area under the curve AUC0-last
Procedure: (§1) Experimental purpose: male CD-1 mice aged 7-9 weeks were selected as test animals, and the drug concentrations of the compounds in plasma at different time points after single intravenous injection (IV) and intragastric administration (PO) of the compounds were measured by an LC/MS/MS method, so that the pharmacokinetic behavior of the compounds disclosed herein in mice was studied, and the pharmacokinetic characteristic of the compounds was evaluated.
(§2) Drug preparation: the compounds were all prepared into clear solution by taking 5% DMSO+10% solutol+85% water as vehicle, and were used for administration in IV and PO groups. The dose of each compound administered was: IV, 3 mg/kg; PO, 10 mg/kg.

BaF3 ETV6-NTRK3-WT = molecular target: T1, BaF3 ETV6-NTRK3-WT (Homo sapiens, UniProt Q16288); assay: Inhibitory activity against cell proliferation (CellTiter-Glo, 72 hours); format: cell-based; conditions: read-out: Half maximal inhibitory concentration IC50 of cells, BaF3 ETV6-NTRK3-WT
T1 construct: fused on or other part: N-terminal part of ETV6 (TEL) as fusion partner (part of the key); P41212 (Transcription factor ETV6)
T1 sequence (Q16288 whole entry, stated change not applied, the tested form may be a part): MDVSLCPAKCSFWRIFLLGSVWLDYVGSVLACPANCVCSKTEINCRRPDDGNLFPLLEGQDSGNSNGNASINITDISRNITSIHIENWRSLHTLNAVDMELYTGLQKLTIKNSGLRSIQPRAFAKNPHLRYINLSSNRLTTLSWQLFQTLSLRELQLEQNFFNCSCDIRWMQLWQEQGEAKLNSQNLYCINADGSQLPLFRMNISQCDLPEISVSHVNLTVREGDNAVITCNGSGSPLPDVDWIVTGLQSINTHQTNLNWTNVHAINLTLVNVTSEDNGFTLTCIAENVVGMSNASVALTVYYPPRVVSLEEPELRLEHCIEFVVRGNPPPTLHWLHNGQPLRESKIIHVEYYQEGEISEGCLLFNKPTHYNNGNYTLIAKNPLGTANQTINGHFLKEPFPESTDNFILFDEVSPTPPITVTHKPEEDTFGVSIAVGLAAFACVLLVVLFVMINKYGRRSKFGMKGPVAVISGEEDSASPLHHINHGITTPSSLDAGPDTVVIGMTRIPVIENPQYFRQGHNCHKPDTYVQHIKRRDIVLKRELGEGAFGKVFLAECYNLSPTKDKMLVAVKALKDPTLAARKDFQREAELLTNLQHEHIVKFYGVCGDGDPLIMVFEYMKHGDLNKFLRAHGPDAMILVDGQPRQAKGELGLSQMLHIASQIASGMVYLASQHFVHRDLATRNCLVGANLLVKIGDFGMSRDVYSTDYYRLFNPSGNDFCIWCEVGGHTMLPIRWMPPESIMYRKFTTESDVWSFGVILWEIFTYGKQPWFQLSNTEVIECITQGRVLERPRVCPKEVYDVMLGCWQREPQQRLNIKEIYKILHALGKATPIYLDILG
Procedure: (§3) Adenosine Triphosphate (ATP) is an energy carrier commonly used in various life activities in nature, and is the minimum unit for energy storage and transfer. The CellTiter-Glo™ cell viability assay kit uses luciferase as an assay agent, which requires the involvement of ATP in luminescence. The CellTiter-Glo™ reagent is added into cell culture medium to measure the luminescence value. The luminescence signal is directly proportional to the amount of ATP in the system, and the ATP is positively correlated with the number of viable cells. Therefore, the proliferation of cells can be detected by detecting the ATP content using the CellTiter-Glo kit.
(§4) a) Cells in the logarithmic growth phase were collected and counted using a […]. The cell viability was detected by the trypan blue exclusion method, and the cell viability was kept over 90%.
(§5) b) The cell concentration was adjusted; 90 μL of the cell suspension was added to a 96-well plate.
(§6) a) A 10-fold compound solution was prepared, with the highest concentration being 10 μM (a total of 9 concentrations, 3-fold dilution). 10 μL of compound solution was added to each well of a 96-well plate inoculated with cells, and three duplicate wells were set for each compound concentration.
(§7) a) The CTG reagent was thawed and the cell plate was equilibrated to room temperature for 30 minutes.
(§8) b) An equal volume of CTG solution was added to each well.
(§9) c) The plate was shaken on an orbital shaker for 5 minutes to lyse the cells.
(§10) d) The cell plate was placed at room temperature for 20 minutes to stabilize the luminescence signal.
(§11) e) The luminescence value was read.
(§12) The data were analyzed using GraphPad Prism 5.0 software, fitted with nonlinear S-curve regression to give dose-response curves, and IC50 values were calculated therefrom.

Ba/F3 LMNA-NTRK1-WT = molecular target: T2, Ba/F3 LMNA-NTRK1-WT (Homo sapiens, UniProt P04629); assay: as above; format: cell-based; conditions: read-out: Half maximal inhibitory concentration IC50 of cells, Ba/F3 LMNA-NTRK1-WT
T2 construct: fused on or other part: N-terminal part of LMNA as fusion partner (part of the key); P02545 (Prelamin-A/C)
T2 sequence (P04629 whole entry, change not shown, the tested form may be a part): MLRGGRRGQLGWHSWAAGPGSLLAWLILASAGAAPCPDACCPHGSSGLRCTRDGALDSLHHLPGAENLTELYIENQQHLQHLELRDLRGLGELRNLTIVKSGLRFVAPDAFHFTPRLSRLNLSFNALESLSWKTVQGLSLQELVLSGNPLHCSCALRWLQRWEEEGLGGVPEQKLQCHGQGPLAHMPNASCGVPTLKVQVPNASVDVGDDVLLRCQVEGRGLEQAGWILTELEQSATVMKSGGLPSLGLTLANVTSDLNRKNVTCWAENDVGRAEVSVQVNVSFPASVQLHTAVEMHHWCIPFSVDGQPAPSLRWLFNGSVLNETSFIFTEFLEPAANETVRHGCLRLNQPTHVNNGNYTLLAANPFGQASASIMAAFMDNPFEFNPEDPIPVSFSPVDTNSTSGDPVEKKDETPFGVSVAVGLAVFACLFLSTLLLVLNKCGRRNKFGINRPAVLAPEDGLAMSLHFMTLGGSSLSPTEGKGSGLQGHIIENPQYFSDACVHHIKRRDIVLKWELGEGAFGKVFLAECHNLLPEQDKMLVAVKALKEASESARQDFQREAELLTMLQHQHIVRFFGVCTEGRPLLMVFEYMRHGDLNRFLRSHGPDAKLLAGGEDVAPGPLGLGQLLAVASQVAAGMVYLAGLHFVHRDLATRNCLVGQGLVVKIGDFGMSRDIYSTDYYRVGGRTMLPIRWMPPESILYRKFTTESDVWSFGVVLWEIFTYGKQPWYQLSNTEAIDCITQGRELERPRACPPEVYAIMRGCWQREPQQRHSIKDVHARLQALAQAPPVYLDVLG
Procedure: as §3, §4, §5, §6, §7, §8, §9, §10, §11, §12

Ba/F3 LMNA-NTRK1-F589L = molecular target: T3, Ba/F3 LMNA-NTRK1-F589L (Homo sapiens, UniProt P04629, F589L, cells depend on it); assay: as above; format: cell-based; conditions: read-out: Half maximal inhibitory concentration IC50 of cells, Ba/F3 LMNA-NTRK1-F589L
T3 construct: fused on or other part: N-terminal part of LMNA as fusion partner (part of the key); P02545 (Prelamin-A/C)
Procedure: as §3, §4, §5, §6, §7, §8, §9, §10, §11, §12

BaF3 LMNA-NTRK1-G667A = molecular target: T4, BaF3 LMNA-NTRK1-G667A (Homo sapiens, UniProt P04629, G667A, cells depend on it); assay: as above; format: cell-based; conditions: read-out: Half maximal inhibitory concentration IC50 of cells, BaF3 LMNA-NTRK1-G667A
T4 construct: fused on or other part: N-terminal part of LMNA as fusion partner (part of the key); P02545 (Prelamin-A/C)
Procedure: as §3, §4, §5, §6, §7, §8, §9, §10, §11, §12

BaF3 LMNA-NTRK1-G595R = molecular target: T5, BaF3 LMNA-NTRK1-G595R (Homo sapiens, UniProt P04629, G595R, cells depend on it); assay: as above; format: cell-based; conditions: read-out: Half maximal inhibitory concentration IC50 of cells, BaF3 LMNA-NTRK1-G595R
T5 construct: fused on or other part: N-terminal part of LMNA as fusion partner (part of the key); P02545 (Prelamin-A/C)
Procedure: as §3, §4, §5, §6, §7, §8, §9, §10, §11, §12

TrkA-G595R = molecular target: T6, TrkA-G595R (Homo sapiens, UniProt P04629, G595R); assay: Kinase inhibitory activity (33P-ATP, filtration-binding method, Reaction Biology Corp.); format: biochemical; conditions: read-out: Half maximal inhibitory concentration IC50 for kinases, TrkA-G595R
T6 construct: purchased Reaction Biology Corp
Procedure: (§13) The mixture was incubated at room temperature for 20 minutes, added with ^33P-ATP at a certain concentration to start the reaction, and then incubated at room temperature for 120 minutes. Finally, the radioactivity of the reactant was detected by the filtration-binding method. The final kinase activity was expressed as the ratio of the remaining kinase activity in the test sample to the kinase activity of the DMSO control. The dose-response curves were fitted and IC50 values were calculated by GraphPad software.

ALK = molecular target: T7, ALK (Homo sapiens, UniProt Q9UM73); assay: as above; format: biochemical; conditions: read-out: Half maximal inhibitory concentration IC50 for kinases, ALK
T7 construct: purchased Reaction Biology Corp
T7 sequence (Q9UM73 19-1620): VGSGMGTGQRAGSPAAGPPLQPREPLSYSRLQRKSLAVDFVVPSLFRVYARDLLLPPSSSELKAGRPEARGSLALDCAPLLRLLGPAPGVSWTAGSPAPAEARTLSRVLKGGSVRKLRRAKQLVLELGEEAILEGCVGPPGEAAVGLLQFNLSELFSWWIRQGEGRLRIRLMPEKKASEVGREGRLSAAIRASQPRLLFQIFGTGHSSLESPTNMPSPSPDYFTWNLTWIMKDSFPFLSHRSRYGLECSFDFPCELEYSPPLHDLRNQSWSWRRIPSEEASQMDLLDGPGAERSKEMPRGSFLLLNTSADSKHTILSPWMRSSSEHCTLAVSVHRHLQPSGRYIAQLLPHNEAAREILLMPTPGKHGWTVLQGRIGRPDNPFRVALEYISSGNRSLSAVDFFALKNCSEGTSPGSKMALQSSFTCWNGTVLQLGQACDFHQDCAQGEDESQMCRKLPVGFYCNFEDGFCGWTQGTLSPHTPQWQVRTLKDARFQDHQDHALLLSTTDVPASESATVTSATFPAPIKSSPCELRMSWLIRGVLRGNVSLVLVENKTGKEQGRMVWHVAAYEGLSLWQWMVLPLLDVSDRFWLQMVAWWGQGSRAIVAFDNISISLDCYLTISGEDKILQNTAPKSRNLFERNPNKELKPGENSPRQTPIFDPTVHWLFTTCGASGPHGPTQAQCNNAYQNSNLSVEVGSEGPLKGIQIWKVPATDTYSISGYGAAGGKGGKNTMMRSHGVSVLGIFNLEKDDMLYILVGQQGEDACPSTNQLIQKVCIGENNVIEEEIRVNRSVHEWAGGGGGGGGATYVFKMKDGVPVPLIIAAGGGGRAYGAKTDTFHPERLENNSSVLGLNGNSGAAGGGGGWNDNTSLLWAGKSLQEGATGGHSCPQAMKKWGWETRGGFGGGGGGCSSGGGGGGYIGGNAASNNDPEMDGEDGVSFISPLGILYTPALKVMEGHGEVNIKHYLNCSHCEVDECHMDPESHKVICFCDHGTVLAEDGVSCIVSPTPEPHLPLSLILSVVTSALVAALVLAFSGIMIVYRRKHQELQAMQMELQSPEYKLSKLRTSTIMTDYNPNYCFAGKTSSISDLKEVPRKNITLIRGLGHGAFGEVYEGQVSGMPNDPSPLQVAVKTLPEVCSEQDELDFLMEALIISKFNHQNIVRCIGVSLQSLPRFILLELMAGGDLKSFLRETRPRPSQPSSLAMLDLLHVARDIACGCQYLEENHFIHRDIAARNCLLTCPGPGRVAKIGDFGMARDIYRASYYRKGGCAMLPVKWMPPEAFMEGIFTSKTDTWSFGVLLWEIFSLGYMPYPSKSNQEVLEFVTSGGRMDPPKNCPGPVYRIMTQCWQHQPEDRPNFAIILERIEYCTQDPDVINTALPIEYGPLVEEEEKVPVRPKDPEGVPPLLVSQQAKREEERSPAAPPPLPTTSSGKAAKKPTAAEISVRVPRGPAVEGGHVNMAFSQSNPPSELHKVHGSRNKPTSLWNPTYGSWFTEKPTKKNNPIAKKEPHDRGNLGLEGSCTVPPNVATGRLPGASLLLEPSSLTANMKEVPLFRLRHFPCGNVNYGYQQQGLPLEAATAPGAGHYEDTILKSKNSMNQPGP
Procedure: as §13

TrkA = molecular target: T8, TrkA (Homo sapiens, UniProt P04629); assay: as above; format: biochemical; conditions: read-out: Half maximal inhibitory concentration IC50 for kinases, TrkA
T8 construct: purchased Reaction Biology Corp
Procedure: as §13

Ros1 = molecular target: T9, Ros1 (Homo sapiens, UniProt P08922); assay: as above; format: biochemical; conditions: read-out: Half maximal inhibitory concentration IC50 for kinases, Ros1
T9 construct: purchased Reaction Biology Corp
Procedure: as §13

TrkC = molecular target: T10, TrkC (Homo sapiens, UniProt Q16288); assay: as above; format: biochemical; conditions: read-out: Half maximal inhibitory concentration IC50 for kinases, TrkC
T10 construct: purchased Reaction Biology Corp
T10 sequence (Q16288 32-839): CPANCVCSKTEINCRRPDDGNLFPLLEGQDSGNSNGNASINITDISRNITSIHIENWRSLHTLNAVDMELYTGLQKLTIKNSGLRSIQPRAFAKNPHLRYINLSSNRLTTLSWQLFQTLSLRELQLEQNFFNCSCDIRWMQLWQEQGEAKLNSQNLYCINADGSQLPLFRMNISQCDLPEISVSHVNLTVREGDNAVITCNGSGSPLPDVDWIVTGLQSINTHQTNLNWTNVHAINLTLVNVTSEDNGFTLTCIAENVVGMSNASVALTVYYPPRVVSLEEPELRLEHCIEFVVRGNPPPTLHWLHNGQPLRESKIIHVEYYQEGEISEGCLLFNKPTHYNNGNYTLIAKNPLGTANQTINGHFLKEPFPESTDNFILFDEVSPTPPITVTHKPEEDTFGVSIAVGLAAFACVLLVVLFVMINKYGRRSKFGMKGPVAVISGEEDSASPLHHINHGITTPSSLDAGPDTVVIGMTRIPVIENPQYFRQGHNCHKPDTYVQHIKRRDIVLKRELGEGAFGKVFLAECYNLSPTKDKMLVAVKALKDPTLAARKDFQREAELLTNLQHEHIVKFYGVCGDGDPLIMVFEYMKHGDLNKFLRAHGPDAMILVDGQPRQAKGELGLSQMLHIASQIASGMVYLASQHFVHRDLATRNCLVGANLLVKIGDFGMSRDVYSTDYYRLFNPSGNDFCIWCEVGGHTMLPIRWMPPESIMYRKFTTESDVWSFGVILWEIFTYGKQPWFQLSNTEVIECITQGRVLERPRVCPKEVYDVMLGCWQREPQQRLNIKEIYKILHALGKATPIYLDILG
Procedure: as §13

TrkA-G667C = molecular target: T11, TrkA-G667C (Homo sapiens, UniProt P04629, G667C); assay: as above; format: biochemical; conditions: read-out: Half maximal inhibitory concentration IC50 for kinases, TrkA-G667C
T11 construct: purchased Reaction Biology Corp
Procedure: as §13

BaF3 ETV6-NTRK3-G623R = molecular target: T12, BaF3 ETV6-NTRK3-G623R (Homo sapiens, UniProt Q16288, G623R, cells depend on it); assay: Inhibitory activity against cell proliferation (CellTiter-Glo, 72 hours); format: cell-based; conditions: read-out: Half maximal inhibitory concentration IC50 of cells, BaF3 ETV6-NTRK3-G623R
T12 construct: fused on or other part: N-terminal part of ETV6 (TEL) as fusion partner (part of the key); P41212 (Transcription factor ETV6)
T12 sequence (Q16288 whole entry G623R, the tested form may be a part): as the sequence (Q16288 whole entry, stated change not applied, the tested form may be a part) above, with G623R counted along it
Procedure: as §3, with “kit. In this test, the cell lines used are Ba/F3 LMNA-NTRK1-WT, Ba/F3 LMNA-NTRK1-F589L, BaF3 LMNA-NTRK1-G595R, BaF3 LMNA-NTRK1-G667A, BaF3 ETV6-NTRK3-WT, BaF3 ETV6-NTRK3-G623R, and Ba/F3 SLC34A2-ROS1-WT stable cell strains, 5000 cells/well.” for “kit.”
as §4, §5
c) Cells in the 96-well plate were incubated overnight at 37° C. with 5% CO2 and 95% humidity.
as §6
b) The cells in the 96-well plate added with compound were incubated for 72 hours at 37° C. with 5% CO2 and 95% humidity, followed by the CTG (CellTiter-Glo) analysis.
as §7, §8, §9, §10, §11, §12

[2] = Pharmacokinetic test of compounds in rats (plasma, LC/MS/MS); format: in vivo, male SD rats
Procedure: as §1, with “SD rats” for “CD-1 mice”, “rats” for “mice”
as §2

Ba/F3 SLC34A2-ROS1-WT = molecular target: T13, Ba/F3 SLC34A2-ROS1-WT (Homo sapiens, UniProt P08922); assay: Inhibitory activity against cell proliferation (CellTiter-Glo, 72 hours); format: cell-based; conditions: read-out: Half maximal inhibitory concentration IC50 of cells, Ba/F3 SLC34A2-ROS1-WT
T13 construct: fused on or other part: N-terminal part of SLC34A2 as fusion partner (part of the key); O95436 (Sodium-dependent phosphate transport protein 2B)
Procedure: as §3, §4, §5, §6, §7, §8, §9, §10, §11, §12

[3] = male, CD-1, mouse, plasma, PO, 10 mg/kg

SMILES | Apparent clearance Cl ([1]; IV, 3 mg/kg) [mL/min/kg] | GI50 (BaF3 ETV6-NTRK3-WT) [nM] | GI50 (Ba/F3 LMNA-NTRK1-WT) [nM] | GI50 (Ba/F3 LMNA-NTRK1-F589L) [nM] | GI50 (BaF3 LMNA-NTRK1-G667A) [nM] | GI50 (BaF3 LMNA-NTRK1-G595R) [nM] | pIC50 (TrkA-G595R) | pIC50 (ALK) | pIC50 (TrkA) | pIC50 (Ros1) | pIC50 (TrkC) | pIC50 (TrkA-G667C) | GI50 (BaF3 ETV6-NTRK3-G623R) [nM] | GI50 (Ba/F3 SLC34A2-ROS1-WT) [nM] | other results
C[C@H]1CNC(=O)c2cnn3ccc(nc23)N2CCOC[C@@H]2c2cc(F)cnc2O1 [WX004B] | 8.14 | 1.5 | 0.8 | 37.4 | 3.9 | 1.2 | 8.57 | 6.87 | 8.57 | 8.09 | 9.52 | 7.74 | 3.2 |  | Apparent volume of distribution Vd ([1]; IV, 3 mg/kg): 0.60 L/kg; Area under the curve AUC0-last ([1]; IV, 3 mg/kg): 15.393 µM·h; Half-life T1/2 ([1]; IV, 3 mg/kg): 63 min; Area under the curve AUC0-last ([1]; PO, 10 mg/kg): 37.294 µM·h; Bioavailability F % ([1]; PO, 10 mg/kg): 73%; Time to peak Tmax ([1]; PO, 10 mg/kg): 30 min; Cmax ([1]; PO, 10 mg/kg): 11.1 µM; Apparent clearance Cl ([2]; IV, 3 mg/kg): 30.9 mL/min/kg; Apparent volume of distribution Vd ([2]; IV, 3 mg/kg): 1.4 L/kg; Area under the curve AUC0-last ([2]; IV, 3 mg/kg): 4.076 µM·h; Half-life T1/2 ([2]; IV, 3 mg/kg): 36 min; Area under the curve AUC0-last ([2]; PO, 10 mg/kg): 4.715 µM·h; Bioavailability F % ([2]; PO, 10 mg/kg): 35%; Time to peak Tmax ([2]; PO, 10 mg/kg): 48 min; Cmax ([2]; PO, 10 mg/kg, read-out: Peak concentration Cmax): 1.77 µM
O=C1N[C@@H]2COC[C@@H]2Oc2ncc(F)cc2C2COCCN2c2ccn3ncc1c3n2 (stereo partly shown) [WX005A] | 9.78 | 2.9 | 0.7 | 56.6 | 3.8 | 5.2 |  |  |  |  |  |  | 11 | 246 | Vd ([1]; male, CD-1, mouse, plasma, IV, 3 mg/kg, read-out: Apparent volume of distribution Vd): 0.78 L/kg; AUC(0-t) ([1]; male, CD-1, mouse, plasma, IV, 3 mg/kg): 12 µM·h; half-life ([1]; male, CD-1, mouse, plasma, IV, 3 mg/kg, read-out: Half-life T1/2 (converted)): 61.2 min; AUC(0-t) [1, 3]: 21.4 µM·h; bioavailability ([1]; male, CD-1, mouse, plasma, PO, 10 mg/kg, read-out: Bioavailability F %): 54%; Cmax [1, 3]: 7.12 µM; Tmax ([1]; male, CD-1, mouse, plasma, PO, 10 mg/kg, read-out: Time to peak Tmax): 22.8 min
O=C1N[C@@H]2COC[C@@H]2Oc2ncc(F)cc2[C@H]2COCCN2c2ccn3ncc1c3n2 [WX005A] |  |  |  |  |  |  | 9.52 | 6.99 | 8.33 | 8.51 | 10.00 | 9.30 |  |  | 
O=C1N[C@@H]2COC[C@@H]2Oc2ncc(F)cc2[C@@H]2COCCN2c2ccn3ncc1c3n2 [WX005B] |  |  |  |  |  |  |  |  | < 6.00 |  |  |  |  |  | 
C[C@@H]1COC[C@@H]2c3cc(F)cnc3OCC3(CC3)NC(=O)c3cnn4ccc(nc34)N12 [WX007] |  | 4.1 | 0.9 | 100 | 1.2 | 6.4 | 9.70 | 6.05 | 9.22 | 8.66 | 10.00 | 10.00 | 13.1 | 770 | 
O=C1NC2(CC2)COc2ncc(F)cc2[C@@H]2CCOCCN2c2ccn3ncc1c3n2 [WX009B] |  |  |  |  |  |  |  |  | < 6.00 |  |  |  |  |  | 
